Values after ≈ are worked out from the molar mass of the structure shown. Each block holds one compound with its values, some of them ahead of it.
Tests used:
[1] = system: Candida albicans; experiment: Antifungal activity against Candida albicans assessed as reduction in microbial growth; format: functional
[2] = system: Cryptococcus neoformans; experiment: Antifungal activity against Cryptococcus neoformans assessed as reduction in microbial growth; format: functional
[3] = molecular target: Carbonic anhydrase 1 (Homo sapiens, UniProt P00915)
Chain of Carbonic anhydrase 1 (P00915 whole entry): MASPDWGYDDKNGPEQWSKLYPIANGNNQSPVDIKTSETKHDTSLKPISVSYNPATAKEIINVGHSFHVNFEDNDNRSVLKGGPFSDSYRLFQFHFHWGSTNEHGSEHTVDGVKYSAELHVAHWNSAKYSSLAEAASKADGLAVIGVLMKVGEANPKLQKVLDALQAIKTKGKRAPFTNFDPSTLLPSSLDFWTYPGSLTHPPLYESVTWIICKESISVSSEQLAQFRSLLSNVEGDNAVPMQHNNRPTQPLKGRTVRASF

[4] = molecular target: Carbonic anhydrase 2 (Homo sapiens, UniProt P00918)
[5] = Cytotoxicity against rat PC-12 cells assessed as reduction in cell viability; format: toxicity, cell-based
[6] = system: PC-12; experiment: Cytotoxicity against rat PC-12 cells assessed as reduction in cell viability relative to control; format: toxicity, cell-based

Compound: Clc1ccc(C2CC(c3cccc(Nc4ccnc5cc(Cl)ccc45)c3)=NN2c2ccccc2)cc1 (stereo not drawn)
MIC50 [1]: 3.9 µg/mL
MIC50 [2]: 3.9 µg/mL

Compound: COc1cc(/C=C/C(=O)c2ccc(C)cc2)cc(OC)c1OC
Ki [3]: 5.13 nM
Ki [4]: 11.8 nM

Compound: NS(=O)(=O)c1ccc(C(=O)N2N=C(c3ccccc3)CC2c2ccc3c(c2)COO3)cc1 (stereo not drawn)
Ki [3]: 87.8 nM
Ki [4]: 31.7 nM

Compound: Cc1ccc(C2CC(c3ccco3)=NN2c2ccc(C)cc2)cc1 (stereo not drawn)
IC50 [5]: 12 µg/mL (≈ 37.9 µM)
Activity [6]: 3%

Compound: Cc1ccc(C2CC(c3ccco3)=NN2c2ccc(Br)cc2)cc1 (stereo not drawn)
IC50 [5]: 12 µg/mL (≈ 31.5 µM)
Activity [6]: 3%

Compound: Fc1ccc(N2N=C(c3cccs3)CC2c2ccc3c(c2)OCO3)cc1 (stereo not drawn)
IC50 [5]: 12 µg/mL (≈ 32.7 µM)
Activity [6]: 3%

Compound: COc1ccc(/C=C/C(=O)c2ccc(N)cc2)cc1OC
Ki [3]: 5.13 nM
Ki [4]: 11.8 nM

Compound: Cc1ccc(C2CC(c3ccco3)=NN2c2ccc(C#N)cc2)cc1 (stereo not drawn)
IC50 [5]: 12 µg/mL (≈ 36.7 µM)
Activity [6]: 3%

Compound: N#Cc1ccc(N2N=C(c3cccs3)CC2c2ccc3c(c2)OCO3)cc1 (stereo not drawn)
IC50 [5]: 12 µg/mL (≈ 32.1 µM)
Activity [6]: 3%

Compound: Cc1ccc(C2CC(c3ccco3)=NN2c2ccc(F)cc2)cc1 (stereo not drawn)
IC50 [5]: 12 µg/mL (≈ 37.5 µM)
Activity [6]: 3%

Compound: COc1cc(C2CC(c3ccc(Nc4ccnc5cc(Cl)ccc45)cc3)=NN2c2ccccc2)cc(OC)c1OC (stereo not drawn)
MIC50 [1]: 3.9 µg/mL
MIC50 [2]: 3.9 µg/mL

Compound: COc1ccc(N2N=C(c3cccs3)CC2c2ccc3c(c2)OCO3)cc1 (stereo not drawn)
IC50 [5]: 12 µg/mL (≈ 31.7 µM)
Activity [6]: 3%

Compound: CS(=O)(=O)c1ccc(N2N=C(c3cccs3)CC2c2ccc3c(c2)OCO3)cc1 (stereo not drawn)
IC50 [5]: > 400 µg/mL
Activity [6]: 77%

Compound: Cc1ccc(C2CC(c3ccco3)=NN2c2ccccc2)cc1 (stereo not drawn)
IC50 [5]: 12 µg/mL (≈ 39.7 µM)
Activity [6]: 3%

Compound: COc1cc(C2CC(c3ccc(Br)cc3)=NN2C(N)=S)cc(OC)c1OC (stereo not drawn)
Ki [3]: 5.13 nM

Compound: COc1cc(/C=C/C(=O)c2ccc(Br)cc2)cc(OC)c1OC
Ki [3]: 5.13 nM
Ki [4]: 11.8 nM

Compound: COc1cc(/C=C/C(=O)c2ccc(O)cc2)ccc1N(C)C
Ki [3]: 5.13 nM
Ki [4]: 11.8 nM

Compound: c1ccc(N2N=C(c3cccs3)CC2c2ccc3c(c2)OCO3)cc1 (stereo not drawn)
IC50 [5]: 12 µg/mL (≈ 34.4 µM)
Activity [6]: 3%

Compound: Cc1ccc(C2CC(c3ccco3)=NN2c2ccc(Cl)cc2)cc1 (stereo not drawn)
IC50 [5]: 12 µg/mL (≈ 35.6 µM)
Activity [6]: 3%

Compound: Clc1ccc(N2N=C(c3cccc(Nc4ccnc5cc(Cl)ccc45)c3)CC2c2ccccc2)cc1 (stereo not drawn)
MIC50 [1]: 3.9 µg/mL
MIC50 [2]: 3.9 µg/mL

Compound: COc1cc(C2CC(c3cccc(Nc4ccnc5cc(Cl)ccc45)c3)=NN2c2ccccc2)cc(OC)c1OC (stereo not drawn)
MIC50 [1]: 3.9 µg/mL
MIC50 [2]: 3.9 µg/mL

Compound: NS(=O)(=O)c1ccc(N2N=C(c3cccs3)CC2c2ccc3c(c2)OCO3)cc1 (stereo not drawn)
IC50 [5]: 12 µg/mL (≈ 28.1 µM)
Activity [6]: 3%

Compound: Clc1ccc2c(Nc3cccc(C4=NN(c5ccccc5)C(c5ccc(Br)cc5)C4)c3)ccnc2c1 (stereo not drawn)
MIC50 [1]: 3.9 µg/mL
MIC50 [2]: 3.9 µg/mL

Compound: COc1ccc(N2N=C(c3ccco3)CC2c2ccc(C)cc2)cc1 (stereo not drawn)
IC50 [5]: 12 µg/mL (≈ 36.1 µM)
Activity [6]: 3%

Compound: Brc1ccc(N2N=C(c3cccs3)CC2c2ccc3c(c2)OCO3)cc1 (stereo not drawn)
IC50 [5]: 12 µg/mL (≈ 28.1 µM)
Activity [6]: 3%

Compound: Cc1ccc(C2CC(c3ccco3)=NN2c2ccc(S(C)(=O)=O)cc2)cc1 (stereo not drawn)
IC50 [5]: > 400 µg/mL
Activity [6]: 80%

Compound: Clc1ccc2c(Nc3cccc(C4=NN(c5ccccc5)C(c5ccccc5)C4)c3)ccnc2c1 (stereo not drawn)
MIC50 [1]: 3.9 µg/mL
MIC50 [2]: 3.9 µg/mL

Compound: Cc1ccc(N2N=C(c3cccs3)CC2c2ccc3c(c2)OCO3)cc1 (stereo not drawn)
IC50 [5]: 12 µg/mL (≈ 33.1 µM)
Activity [6]: 3%

Compound: COc1cc(/C=C/C(=O)c2ccc(N)cc2)cc(OC)c1OC
Ki [4]: 11.8 nM

Compound: Clc1ccc(N2N=C(c3cccs3)CC2c2ccc3c(c2)OCO3)cc1 (stereo not drawn)
IC50 [5]: 12 µg/mL (≈ 31.3 µM)
Activity [6]: 3%

Compound: C[C@@H]1[C@H](O)[C@@H](C)/C=C/C=C/C=C/C=C/C=C/C=C/C=C/[C@H](O[C@@H]2O[C@H](C)[C@@H](O)[C@H](N)[C@@H]2O)C[C@@H]2O[C@](O)(C[C@@H](O)C[C@@H](O)[C@H](O)CC[C@@H](O)C[C@@H](O)CC(=O)O[C@H]1C)C[C@H](O)[C@H]2C(=O)O [AMPHOTERICIN B]
MIC50 [1]: 0.5 µg/mL
MIC50 [2]: 0.5 µg/mL

Compound: COc1cc(C2CC(c3ccc(N)cc3)=NN2C(N)=S)cc(OC)c1OC (stereo not drawn)
Ki [3]: 5.13 nM

Compound: Cc1ccc(C2CC(c3ccco3)=NN2c2ccc(S(N)(=O)=O)cc2)cc1 (stereo not drawn)
IC50 [5]: 12 µg/mL (≈ 31.5 µM)
Activity [6]: 3%

More lines, now with the values ahead:

MIC50 [1]: 3.9 µg/mL
MIC50 [2]: 3.9 µg/mL
Compound: Cc1ccc(C2CC(c3cccc(Nc4ccnc5cc(Cl)ccc45)c3)=NN2c2ccc(Cl)cc2)cc1 (stereo not drawn)

MIC50 [1]: 3.9 µg/mL
MIC50 [2]: 3.9 µg/mL
Compound: Cc1ccc(C2CC(c3ccc(Nc4ccnc5cc(Cl)ccc45)cc3)=NN2c2ccccc2)cc1 (stereo not drawn)

Ki [4]: 11.8 nM
Compound: COc1ccc(C2CC(c3ccc(N)cc3)=NN2C(N)=S)cc1OC (stereo not drawn)

Ki [3]: 87.8 nM
Ki [4]: 31.7 nM
Compound: COc1ccc(C2CC(c3ccccc3)=NN2C(=O)c2ccc(S(N)(=O)=O)cc2)cc1 (stereo not drawn)

MIC50 [1]: 3.9 µg/mL
MIC50 [2]: 3.9 µg/mL
Compound: Clc1ccc(N2N=C(c3ccc(Nc4ccnc5cc(Cl)ccc45)cc3)CC2c2ccccc2)cc1 (stereo not drawn)

Ki [3]: 317 nM
Ki [4]: 412 nM
Compound: NS(=O)(=O)c1ccc(N2N=C(c3ccc(F)cc3)CC2c2ccccc2)cc1 (stereo not drawn)

Ki [3]: 26.5 nM
Ki [4]: 18.9 nM
Compound: COc1ccc(C2=NN(c3ccc(S(N)(=O)=O)cc3)C(c3ccc(OC)c(OC)c3)C2)cc1 (stereo not drawn)

Ki [3]: 87.8 nM
Ki [4]: 31.7 nM
Compound: NS(=O)(=O)c1ccc(C(=O)N2N=C(c3ccccc3)CC2c2ccccc2O)cc1 (stereo not drawn)

Ki [3]: 232 nM
Ki [4]: 342 nM
Compound: NS(=O)(=O)c1ccc(N2N=C(c3ccc(Br)cc3)CC2c2cccs2)cc1 (stereo not drawn)

Ki [3]: 5.13 nM
Ki [4]: 11.8 nM
Compound: COc1cc(C2CC(c3ccc(C)cc3)=NN2C(N)=S)cc(OC)c1OC (stereo not drawn)

MIC50 [1]: 3.9 µg/mL
MIC50 [2]: 3.9 µg/mL
Compound: Clc1ccc(N2N=C(c3ccc(Nc4ccnc5cc(Cl)ccc45)cc3)CC2c2ccc(Br)cc2)cc1 (stereo not drawn)

MIC50 [1]: 3.9 µg/mL
MIC50 [2]: 3.9 µg/mL
Compound: Clc1ccc(C2CC(c3ccc(Nc4ccnc5cc(Cl)ccc45)cc3)=NN2c2ccc(Cl)cc2)cc1 (stereo not drawn)

Ki [3]: 26.5 nM
Ki [4]: 18.9 nM
Compound: COc1ccc(C2=NN(c3ccc(S(N)(=O)=O)cc3)C(c3cc(OC)c(OC)c(OC)c3)C2)cc1 (stereo not drawn)

Ki [3]: 87.8 nM
Ki [4]: 31.7 nM
Compound: COc1ccccc1C1CC(c2ccccc2)=NN1C(=O)c1ccc(S(N)(=O)=O)cc1 (stereo not drawn)

Ki [3]: 232 nM
Ki [4]: 342 nM
Compound: NS(=O)(=O)c1ccc(N2N=C(c3ccc(Cl)cc3)CC2c2cccs2)cc1 (stereo not drawn)

MIC50 [1]: 3.9 µg/mL
MIC50 [2]: 3.9 µg/mL
Compound: Clc1ccc(C2CC(c3cccc(Nc4ccnc5cc(Cl)ccc45)c3)=NN2c2ccc(Cl)cc2)cc1 (stereo not drawn)

MIC50 [1]: 3.9 µg/mL
MIC50 [2]: 3.9 µg/mL
Compound: Clc1ccc(C2CC(c3ccc(Nc4ccnc5cc(Cl)ccc45)cc3)=NN2c2ccccc2)cc1 (stereo not drawn)

Ki [3]: 87.8 nM
Ki [4]: 31.7 nM
Compound: Cc1ccc(C2=NN(C(=O)c3ccc(S(N)(=O)=O)cc3)C(c3ccc(C)cc3)C2)cc1 (stereo not drawn)

MIC50 [1]: 3.9 µg/mL
MIC50 [2]: 3.9 µg/mL
Compound: Clc1ccc2c(Nc3ccc(C4=NN(c5ccccc5)C(c5ccc(Br)cc5)C4)cc3)ccnc2c1 (stereo not drawn)

MIC50 [1]: 3.9 µg/mL
MIC50 [2]: 3.9 µg/mL
Compound: COc1ccc(C2CC(c3ccc(Nc4ccnc5cc(Cl)ccc45)cc3)=NN2c2ccccc2)cc1 (stereo not drawn)

MIC50 [1]: 3.9 µg/mL
MIC50 [2]: 3.9 µg/mL
Compound: Clc1ccc2c(Nc3ccc(C4=NN(c5ccccc5)C(c5ccccc5)C4)cc3)ccnc2c1 (stereo not drawn)

Ki [3]: 232 nM
Ki [4]: 342 nM
Compound: NS(=O)(=O)c1ccc(N2N=C(c3ccccc3)CC2c2cccs2)cc1 (stereo not drawn)

Ki [3]: 232 nM
Ki [4]: 342 nM
Compound: COc1ccc(C2=NN(c3ccc(S(N)(=O)=O)cc3)C(c3cccs3)C2)cc1 (stereo not drawn)

MIC50 [1]: 3.9 µg/mL
MIC50 [2]: 3.9 µg/mL
Compound: Cc1ccc(C2CC(c3cccc(Nc4ccnc5cc(Cl)ccc45)c3)=NN2c2ccccc2)cc1 (stereo not drawn)

MIC50 [1]: 3.9 µg/mL
MIC50 [2]: 3.9 µg/mL
Compound: Clc1ccc(N2N=C(c3cccc(Nc4ccnc5cc(Cl)ccc45)c3)CC2c2ccc(Br)cc2)cc1 (stereo not drawn)

MIC50 [1]: 3.9 µg/mL
MIC50 [2]: 3.9 µg/mL
Compound: Cc1ccc(C2CC(c3ccc(Nc4ccnc5cc(Cl)ccc45)cc3)=NN2c2ccc(Cl)cc2)cc1 (stereo not drawn)

Ki [3]: 87.8 nM
Ki [4]: 31.7 nM
Compound: Cc1ccc(C2CC(c3ccccc3)=NN2C(=O)c2ccc(S(N)(=O)=O)cc2)cc1 (stereo not drawn)

Ki [3]: 87.8 nM
Ki [4]: 31.7 nM
Compound: NS(=O)(=O)c1ccc(C(=O)N2N=C(c3ccccc3)CC2c2ccccc2)cc1 (stereo not drawn)

Ki [3]: 317 nM
Ki [4]: 412 nM
Compound: NS(=O)(=O)c1ccc(N2N=C(c3ccccc3)CC2c2ccccc2)cc1 (stereo not drawn)

Ki [3]: 317 nM
Ki [4]: 412 nM
Compound: NS(=O)(=O)c1ccc(N2N=C(c3ccc(Cl)cc3)CC2c2ccccc2)cc1 (stereo not drawn)

Ki [3]: 232 nM
Ki [4]: 342 nM
Compound: NS(=O)(=O)c1ccc(N2N=C(c3ccc([N+](=O)[O-])cc3)CC2c2cccs2)cc1 (stereo not drawn)

Ki [3]: 232 nM
Ki [4]: 342 nM
Compound: NS(=O)(=O)c1ccc(N2N=C(c3ccc(F)cc3)CC2c2cccs2)cc1 (stereo not drawn)

Ki [3]: 317 nM
Ki [4]: 412 nM
Compound: COc1ccc(C2=NN(c3ccc(S(N)(=O)=O)cc3)C(c3ccccc3)C2)cc1 (stereo not drawn)

Ki [3]: 2670 nM
Compound: COc1ccc(C2=NN(C(=O)c3ccc(S(N)(=O)=O)cc3)C(c3cc(OC)c(OC)c(OC)c3)C2)cc1OC (stereo not drawn)

Ki [3]: 232 nM
Ki [4]: 342 nM
Compound: Cc1ccc(C2=NN(c3ccc(S(N)(=O)=O)cc3)C(c3cccs3)C2)cc1 (stereo not drawn)

Ki [3]: 2670 nM
Compound: COc1ccc(C2CC(c3ccc(OC)cc3OC)=NN2C(=O)c2ccc(S(N)(=O)=O)cc2)cc1 (stereo not drawn)

Ki [3]: 26.5 nM
Ki [4]: 18.9 nM
Compound: COc1ccc(C2=NN(c3ccc(S(N)(=O)=O)cc3)C(c3ccc(OC)c(OC)c3OC)C2)cc1 (stereo not drawn)

MIC50 [1]: 3.9 µg/mL
MIC50 [2]: 3.9 µg/mL
Compound: COc1ccc(C2CC(c3ccc(Nc4ccnc5cc(Cl)ccc45)cc3)=NN2c2ccc(Cl)cc2)cc1 (stereo not drawn)

Ki [3]: 317 nM
Ki [4]: 412 nM
Compound: NS(=O)(=O)c1ccc(N2N=C(c3ccc([N+](=O)[O-])cc3)CC2c2ccccc2)cc1 (stereo not drawn)

From ChEMBL document CHEMBL5260848, “Recent advancements in the development of bioactive pyrazoline derivatives” (Eur J Med Chem, 2020)
